In PubChem BioAssay AID200 (DTP/NCI, 2004):
Several values for one entry are separate records, joined by “and”; a condition that tells them apart may be missing. Equal entries are not always repeated. Toxic doses and inconclusive results are not listed. Rule for the calls: active = survival T/C of 150% or more; inactive = T/C below 125% in these data.

System: B6C3F1 mice, B16 melanoma ip, median survival T/C
Experiment: NCI In Vivo Anticancer Drug Screen. Data for tumor model B16 Melanoma (intraperitoneal) in B6C3F1 mice
Settings: endpoint: median survival time, higher = longer survival
Summary of the method: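 Tumor-bearing mice received test compound; a separate group got vehicle only. Survival was then compared, with results reported as treated over control.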

[1] = dose: 5.0 mg/kg/injection, schedule: Q01DX009 (ip), vehicle: saline with Tween-80
[2] = dose: 10.0 mg/kg/injection, schedule: Q01DX009 (ip), vehicle: saline with Tween-80
[3] = dose: 25.0 mg/kg/injection, schedule: Q01DX009 (ip), vehicle: Klucel (hydroxypropylcellulose) (HPC)
[4] = dose: 50.0 mg/kg/injection, schedule: Q01DX009 (ip), vehicle: Klucel (hydroxypropylcellulose) (HPC)
[5] = dose: 200.0 mg/kg/injection, schedule: Q01DX009 (ip), vehicle: Klucel (hydroxypropylcellulose) (HPC)
[6] = dose: 12.5 mg/kg/injection, schedule: Q01DX009 (ip), vehicle: Klucel (hydroxypropylcellulose) (HPC)
[7] = dose: 25.0 mg/kg/injection, schedule: Q01DX009 (ip), vehicle: saline with Tween-80
[8] = dose: 50.0 mg/kg/injection, schedule: Q01DX009 (ip), vehicle: saline with Tween-80
[9] = dose: 100.0 mg/kg/injection, schedule: Q01DX009 (ip), vehicle: saline with Tween-80
[10] = dose: 200.0 mg/kg/injection, schedule: Q01DX009 (ip), vehicle: saline with Tween-80
[11] = dose: 12.5 mg/kg/injection, schedule: Q01DX009 (ip), vehicle: saline with Tween-80
[12] = dose: 6.25 mg/kg/injection, schedule: Q01DX009 (ip), vehicle: saline with Tween-80
[13] = dose: 400.0 mg/kg/injection, schedule: Q01DX009 (ip), vehicle: saline with Tween-80

Measured: T/C

Nc1ccc(Cn2ccc3c4c(N)nc(N)nc4ccc32)cc1
inactive: dose: 1.25 mg/kg/injection, schedule: Q01DX009 (ip), vehicle: saline with Tween-80 95 % of control and 100 % of control | dose: 2.5 mg/kg/injection, schedule: Q01DX009 (ip), vehicle: saline with Tween-80 110 % of control and 99 % of control | [1] 99 % of control and 105 % of control | [2] 111 % of control and 119 % of control

CN(C)CCC(=O)C(=Cc1ccc(O)cc1)C(=O)CCN(C)C
inactive: dose: 12.5 mg/kg/injection, schedule: Q01DX009 (ip), vehicle: saline 101 % of control | dose: 25.0 mg/kg/injection, schedule: Q01DX009 (ip), vehicle: saline 97 % of control | dose: 50.0 mg/kg/injection, schedule: Q01DX009 (ip), vehicle: saline 101 % of control | dose: 100.0 mg/kg/injection, schedule: Q01DX009 (ip), vehicle: saline 97 % of control | dose: 200.0 mg/kg/injection, schedule: Q01DX009 (ip), vehicle: saline 102 % of control

COC(=O)Nc1nc2ccc(SC)cc2c(=O)[nH]1
inactive: [3] 96 % of control | [4] 101 % of control | [5] 114 % of control

O=NN(CCCl)C(=O)Oc1ccc(OC(=O)N(CCCl)N=O)cc1
inactive: dose: 3.12 mg/kg/injection, schedule: Q01DX009 (ip), vehicle: Klucel (hydroxypropylcellulose) (HPC) 112 % of control | dose: 6.25 mg/kg/injection, schedule: Q01DX009 (ip), vehicle: Klucel (hydroxypropylcellulose) (HPC) 107 % of control | [6] 107 % of control

COc1cc2c3c(cccc3c1)C(=O)N(CCN(C)C)C2=O
inactive: [1] 119 % of control and 95 % of control | [2] 115 % of control and 100 % of control | dose: 20.0 mg/kg/injection, schedule: Q01DX009 (ip), vehicle: saline with Tween-80 110 % of control and 100 % of control and 105 % of control | dose: 40.0 mg/kg/injection, schedule: Q01DX009 (ip), vehicle: saline with Tween-80 109 % of control and 121 % of control and 104 % of control | dose: 80.0 mg/kg/injection, schedule: Q01DX009 (ip), vehicle: saline with Tween-80 107 % of control

O=C1O/C(=C2\OCc3ccccc32)c2ccccc21
inactive: [7] 115 % of control | [8] 119 % of control | [9] 96 % of control | [10] 102 % of control

O=C1NC(O)c2ccccc2O1 (stereo unspecified)
inactive: [11] 99 % of control | dose: 12.5 mg/kg/injection, schedule: Q01DX009 (ip), vehicle: suspension in saline 101 % of control | [7] 103 % of control | dose: 25.0 mg/kg/injection, schedule: Q01DX009 (ip), vehicle: suspension in saline 103 % of control | [8] 103 % of control | dose: 50.0 mg/kg/injection, schedule: Q01DX009 (ip), vehicle: suspension in saline 101 % of control | [9] 106 % of control | dose: 100.0 mg/kg/injection, schedule: Q01DX009 (ip), vehicle: suspension in saline 98 % of control | [10] 114 % of control | dose: 200.0 mg/kg/injection, schedule: Q01DX009 (ip), vehicle: suspension in saline 100 % of control | dose: 400.0 mg/kg/injection, schedule: Q01DX009 (ip), vehicle: suspension in saline 95 % of control

O=C(CCl)NC(Cc1ccc(O)cc1)C(=O)O (stereo unspecified)
inactive: [8] 93 % of control | [9] 87 % of control

COc1cccc2c1C(=O)c1c(O)c3c(c(O)c1C2=O)C[C@@](O)(C(O)CO)C[C@@H]3OC1CC(N(Cc2ccccc2)Cc2ccccc2)C(O)C(C)O1 (stereo partly specified)
inactive: dose: 6.25 mg/kg/injection, schedule: Q01DX001 (ip), vehicle: water 111 % of control
active: dose: 50.0 mg/kg/injection, schedule: Q01DX001 (ip), vehicle: water 166 % of control | dose: 50.0 mg/kg/injection, schedule: Q01DX009 (ip), vehicle: water 160 % of control | dose: 100.0 mg/kg/injection, schedule: Q01DX001 (ip), vehicle: water 196 % of control | dose: 200.0 mg/kg/injection, schedule: Q01DX001 (ip), vehicle: water 232 % of control

CO[C@@]12[C@@H]3N[C@@H]3CN1C1=C(C(=O)C(NCc3ccco3)=C(C)C1=O)[C@@H]2COC(N)=O
active: dose: 4.5 mg/kg/injection, schedule: Q01DX001 (ip), vehicle: distilled water + Tween-80 170 % of control | dose: 9.0 mg/kg/injection, schedule: Q01DX001 (ip), vehicle: distilled water + Tween-80 186 % of control | dose: 18.0 mg/kg/injection, schedule: Q01DX001 (ip), vehicle: distilled water + Tween-80 219 % of control | dose: 36.0 mg/kg/injection, schedule: Q01DX001 (ip), vehicle: distilled water + Tween-80 247 % of control

O=S(=O)(O)C1=CC(=N\Cl)/C=CC/1=N/Cl
inactive: dose: 50.0 mg/kg/injection, schedule: Q01DX009 (ip), vehicle: saline + Tween-80 + alcohol 100 % of control | dose: 100.0 mg/kg/injection, schedule: Q01DX009 (ip), vehicle: saline + Tween-80 + alcohol 100 % of control

CC(C)N1C(=O)C=C(c2ccc([N+](=O)[O-])cc2)C1=O
inactive: dose: 3.12 mg/kg/injection, schedule: Q01DX009 (ip), vehicle: saline with Tween-80 104 % of control | [12] 111 % of control | [11] 105 % of control | [7] 105 % of control

CN(C)N=Nc1cn[nH]c1C(N)=O
inactive: [6] 98 % of control | [3] 91 % of control | [4] 96 % of control | dose: 100.0 mg/kg/injection, schedule: Q01DX009 (ip), vehicle: Klucel (hydroxypropylcellulose) (HPC) 87 % of control | [5] 89 % of control | dose: 400.0 mg/kg/injection, schedule: Q01DX009 (ip), vehicle: Klucel (hydroxypropylcellulose) (HPC) 86 % of control

O=C1C2C3C=CC(C2C(=O)N1CO)C1C2C(=O)N(CO)C(=O)C2C31 (stereo unspecified)
inactive: dose: 6.25 mg/kg/injection, schedule: Q01DX009 (ip), vehicle: water 102 % of control | dose: 12.5 mg/kg/injection, schedule: Q01DX009 (ip), vehicle: water 109 % of control | dose: 25.0 mg/kg/injection, schedule: Q01DX009 (ip), vehicle: water 113 % of control

C[CH2][Ge]([CH2]C)[CH2]C.C[CH2][Ge]([CH2]C)[CH2]C.C[CH2][Ge]([CH2]C)[O][Ge]([CH2]C)[CH2]C
inactive: dose: 3.13 mg/kg/injection, schedule: Q01DX009 (ip), vehicle: saline with Tween-80 89 % of control | [12] 93 % of control | [11] 87 % of control

O=C(O)COc1ccc(-c2ccc(Br)cc2)cc1
inactive: [7] 95 % of control | [8] 98 % of control | [9] 87 % of control | [10] 96 % of control | [13] 94 % of control

C/C=C1/C(=O)O[C@]23C=C[C@@H]4C(C(=O)OC)=CO[C@H](O[C@@H]12)[C@@H]43
inactive: dose: 3.75 mg/kg/injection, schedule: Q01DX009 (ip), vehicle: Klucel (hydroxypropylcellulose) (HPC) 102 % of control | dose: 7.5 mg/kg/injection, schedule: Q01DX009 (ip), vehicle: Klucel (hydroxypropylcellulose) (HPC) 91 % of control | dose: 15.0 mg/kg/injection, schedule: Q01DX009 (ip), vehicle: Klucel (hydroxypropylcellulose) (HPC) 98 % of control

Nc1nc2ccc(NCc3ccc(C(=O)NC(CCC(=O)O)C(=O)O)cc3)cc2c(=O)[nH]1 (stereo unspecified)
inactive: [12] 88 % of control | [11] 91 % of control | [7] 97 % of control | [8] 91 % of control | [9] 93 % of control

O=C(C/C(=N\C(=S)Nc1cc(C(F)(F)F)ccc1Cl)NO)N1CCCC1
inactive: [7] 123 % of control | [8] 116 % of control | [9] 94 % of control

O=C(O)C(Cc1ccc(O)cc1)NS(=O)(=O)Cc1ccccc1 (stereo unspecified)
inactive: [9] 106 % of control | [10] 101 % of control | [13] 100 % of control

CC[C@@]1(O)C[C@H](OC2CC(N(C)C)C(OC3CC(O)C(OC4CCC(=O)C(C)O4)C(C)O3)C(C)O2)c2c(cc3c(c2O)C(=O)c2c(O)ccc(O)c2C3=O)[C@H]1C(=O)OC (stereo partly specified)
inactive: dose: 0.25 mg/kg/injection, schedule: Q01DX009 (ip), vehicle: water 100 % of control | dose: 0.5 mg/kg/injection, schedule: Q01DX009 (ip), vehicle: water 120 % of control
active: dose: 1.0 mg/kg/injection, schedule: Q01DX009 (ip), vehicle: water 156 % of control
